{
  "source": "paper PMC8131219",
  "about": "(Chemical research in toxicology, 2020)",
  "key": {"human VMAT2 [1]": {"molecular_target": "T1, human VMAT2 (Homo sapiens, UniProt Q05940)", "T1 sequence (Q05940 whole entry)": "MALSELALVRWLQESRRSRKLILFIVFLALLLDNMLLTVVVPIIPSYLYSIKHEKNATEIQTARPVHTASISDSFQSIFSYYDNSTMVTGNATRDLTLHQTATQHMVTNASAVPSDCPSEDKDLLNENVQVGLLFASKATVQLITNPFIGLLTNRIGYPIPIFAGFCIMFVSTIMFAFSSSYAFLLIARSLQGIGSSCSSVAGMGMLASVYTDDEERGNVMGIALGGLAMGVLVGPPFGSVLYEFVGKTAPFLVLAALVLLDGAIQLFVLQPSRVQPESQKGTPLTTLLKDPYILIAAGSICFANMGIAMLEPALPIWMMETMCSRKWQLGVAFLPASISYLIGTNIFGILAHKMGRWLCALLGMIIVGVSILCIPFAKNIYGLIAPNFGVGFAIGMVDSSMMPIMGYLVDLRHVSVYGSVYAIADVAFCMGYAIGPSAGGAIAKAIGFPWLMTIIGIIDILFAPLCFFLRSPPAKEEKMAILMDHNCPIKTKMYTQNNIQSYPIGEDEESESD", "assay": "cell-based", "conditions": "for VMAT2 inhibitor strength (in words): short-term exposure, up to 100 μM; for Effect on FFN206 uptake / vesicular loading: tested at 0.01, 0.1, 1, 10 and 100 μM"}, "human VMAT2 [2]": {"molecular_target": "T1, human VMAT2", "assay": "Real-time uptake of FFN206 with confocal microscopy in HEK+VMAT2 cells", "format": "cell-based", "conditions": "20 μM FFN206; one-way ANOVA, p <0.0001 vs HEK+VMAT2"}, "[3]": {"conditions": "100 nM rotenone; after 48 hours; from mitochondrial complex I inhibition; cited from earlier work"}},
  "note": "pIC50: −log10 of the molar value. Where two headings read alike, the source gives them in different places.",
  "data": [
    {"molecule": "O=S(=O)(O)C(F)(F)C(F)(F)C(F)(F)C(F)(F)C(F)(F)C(F)(F)C(F)(F)C(F)(F)F", "note": "[PFOS, perfluorooctanesulfonic acid]", "values": [
      {"measurement": "VMAT2 inhibitor strength (in words)", "setting": "human VMAT2 [1]; HEK+VMAT2 cells", "result": "weak inhibitors of VMAT2"},
      {"measurement": "Effect on FFN206 uptake / vesicular loading", "setting": "human VMAT2 [1]; HEK+VMAT2 cells", "result": "did not show impairment of vesicular loading"}
    ]},
    {"molecule": "CO/C1=C\\C(C)=C\\[C@@H](C)[C@@H](O)[C@@H](C)C/C(C)=C/C=C/[C@H](OC)[C@@H]([C@@H](C)[C@@H](O)[C@H](C)[C@@]2(O)C[C@@H](O)[C@H](C)[C@@H](C(C)C)O2)OC1=O", "note": "[bafilomycin, reference compound]", "values": [
      {"measurement": "Effect on FFN206 fluorescence", "setting": "human VMAT2 [1]; HEK+VMAT2 cells, 10 μM tetrabenazine, bafilomycin data not shown", "result": "depleted FFN206 fluorescence"},
      {"measurement": "FFN206 fluorescence in final 20 seconds of 1000 seconds uptake vs HEK+VMAT2", "setting": "human VMAT2 [2]", "result": "decreased FFN206 fluorescence"}
    ]},
    {"molecule": "CCOP(=S)(OCC)Oc1nc(Cl)c(Cl)cc1Cl", "note": "[chlorpyrifos]", "values": [
      {"measurement": "Effect on FFN206 uptake / vesicular loading", "setting": "human VMAT2 [1]; HEK+VMAT2 cells", "result": "minor decrease in FFN206 uptake at the highest concentration"}
    ]},
    {"molecule": "CN[C@@H](C)Cc1ccccc1", "note": "[methamphetamine, reference compound]", "values": [
      {"measurement": "pIC50", "setting": "human VMAT2 [1]", "result": 5.62},
      {"measurement": "Concentration showing essentially complete / total inhibition of VMAT2", "setting": "human VMAT2 [1]; HEK+VMAT2 cells, dose response, 1 μM FFN206", "result": "≤ 100", "unit": "µM"}
    ]},
    {"molecule": "COC(=O)C(c1ccccc1)C1CCCCN1", "note": "(centres unmarked) [methylphenidate, reference compound]", "values": [
      {"measurement": "pIC50", "setting": "human VMAT2 [1]", "result": 4.03}
    ]},
    {"molecule": "C[n+]1ccc(-c2cc[n+](C)cc2)cc1", "note": "[paraquat]", "values": [
      {"measurement": "pIC50", "setting": "human VMAT2 [1]", "result": 4.91}
    ]},
    {"molecule": "C=C(C)[C@H]1Cc2c(ccc3c2O[C@@H]2COc4cc(OC)c(OC)cc4[C@@H]2C3=O)O1", "note": "[rotenone]", "values": [
      {"measurement": "Concentration at which a reduction in VMAT2 function was detected", "setting": "human VMAT2 [1]; HEK+VMAT2 cells, 90 minutes total exposure", "result": 100, "unit": "µM"},
      {"measurement": "Effect on FFN206 uptake / vesicular loading", "setting": "human VMAT2 [1]; HEK+VMAT2 cells", "result": "minor decrease in FFN206 uptake at the highest concentration"},
      {"measurement": "Cell death", "setting": "[3]", "result": "70–80%"}
    ]},
    {"molecule": "COc1cc2c(cc1OC)C1CC(=O)C(CC(C)C)CN1CC2", "note": "(centres unmarked) [tetrabenazine, reference compound]", "values": [
      {"measurement": "Concentration showing essentially complete / total inhibition of VMAT2", "setting": "human VMAT2 [1]", "result": 1, "unit": "µM"},
      {"measurement": "Effect on FFN206 fluorescence", "setting": "human VMAT2 [1]", "result": "almost total loss of FFN206 fluorescence"},
      {"measurement": "FFN206 fluorescence in final 20 seconds of 1000 seconds uptake vs HEK+VMAT2", "setting": "human VMAT2 [2]", "result": "significant differences"}
    ]},
    {"molecule": "hexabromocyclododecane", "values": [
      {"measurement": "VMAT2 inhibitor strength (in words)", "setting": "human VMAT2 [1]; HEK+VMAT2 cells", "result": "weak inhibitors of VMAT2"},
      {"measurement": "Effect on FFN206 uptake / vesicular loading", "setting": "human VMAT2 [1]; HEK+VMAT2 cells", "result": "did not show impairment of vesicular loading"}
    ]}
  ]
}
